Read-outs that look alike come from different tables or passages of the source.
What was measured:
[1] = Protocol: Animals were anesthetized with isoflurane-oxygen and injected with 50 μL of 10 mg/mL sulforhodamine B PBS solution at the sciatic nerve co-injected with or without 50 μL of 50 μg/mL DMED. […] The supernatant was collected and methanol was added at a 1:1 vol ratio. […] The concentration of sulforhodamine B was analyzed by fluorescence (excitation/emission: 560/580 nm).
Liposomal pharmacokinetics studies were performed by co-injecting 200 μL of Lipo-PS-Srho with 200 μL of Lipo or Lipo-DMED at the sciatic nerve. At predetermined time points (30 min, 3 h, 7 h and 10 h), blood was harvested by tail-bleeding.

[2] = test system: sciatic nerves and adjacent tissues; conditions: rat, in vivo
sciatic nerve = experiment: Motor nerve block, weight-bearing test (TTX, ultrasound, microbubbles); conditions: rat, in vivo

SMILES: Cc1cccc([C@H](C)c2cnc[nH]2)c1C [DMED, (S)-4-[1-(2,3-Dimethylphenyl)ethyl]-3H-imidazole]
- decrease of peak Srho plasma concentration ([1]; rat, in vivo): 27.5%
- time to peak Srho plasma level ([1]; rat, in vivo): 60 min

SMILES: CCN(CC)c1ccc2c(-c3ccc(S(=O)(=O)O)cc3S(=O)(=O)[O-])c3ccc(=[N+](CC)CC)cc-3oc2c1 [Srho, sulforhodamine B]
- time to peak Srho plasma level ([1]; free Srho without DMED): 30 min

SMILES: N=C1N[C@@H](O)[C@H]2[C@@H]3OC4(O)OC(C(O)[C@@]2(N1)[C@@H]4O)[C@]3(O)CO (stereo partly drawn) [TTX, Tetrodotoxin]
- inflammation score [2]: 1
- myotoxicity score [2]: 0
- median duration of motor nerve block (sciatic nerve): 0 min

From patent US11344498B2, “Compositions and methods for on-demand high-efficiency triggerable anesthesia” (priority 2015, dated 2022)
